Ka data for one molecule are collected here from paper PMC3673541 (2011).

The subject of assay [1] is Oxytricha Nova quadruplex (DNA, G4) GGGGTTTTGGGG
As to the kind of experiment: ITC. As to conditions: Na+ 100 mM; 10 mM cacodylate, 0.5 mM EDTA, pH 6.8.

Assay [2] concerns human telomeric DNA (22mer) (DNA, G4) AGGGTTAGGGTTAGGGTTAGGG
As to the kind of experiment: ITC. As to conditions: Na+ 100 mM; 10 mM cacodylate, 0.5 mM EDTA, pH 6.8; one-site model.

Regarding `NC[C@@H]1O[C@H](O[C@H]2[C@@H](O)[C@H](O[C@@H]3[C@@H](O)[C@H](N)C[C@H](N)[C@H]3O[C@H]3O[C@H](CN)[C@@H](O)[C@H](O)[C@H]3N)O[C@@H]2CO)[C@H](N)[C@@H](O)[C@@H]1O`, the Ka result in assay [1] is given as “(1.8±0.3)×10^5 M^−1”; in assay [2] it was “(2.5±0.2)×10^4 M^−1”.
